Laboratory results as given in patent US7956070B2, “Piperidines as chemokine modulators (CCR)” (AstraZeneca AB, priority 2004, dated 2011).

Experiment: pKa measurement (Sirius GLpKa)
Format: physicochemical
Conditions: ionic strength adjusted (0.10 M KCl) water; Method B: potentiometric method; read-out: pKa (measured using Method B)
Method: The pKa of a compound of formula (I) is measured using one of the following methodologies.
The apparatus used consists of a Sirius GLpKa instrument with DPAS (Dip Probe Absorption Spectroscopy) attachment. Key elements of the apparatus are a Sirius pH electrode, stirrer, titrant dispensing tubes, a multi-tipped dispenser, motor driven dispensing syringes, fibre optic UV probe and diode array detector. In addition, solutions in PTFE containers of ionic strength adjusted (0.10 M KCl) distilled water, nominally 0.50 M HCl, nominally 0.50 M KOH and 80% v/v methanol:water are also housed within the instrument. The titration solutions are constantly purged with oxygen free nitrogen. The reservoir for the potassium hydroxide solution is further protected from atmospheric contamination by a soda-lime guard-tube. Samples are placed in titration vessels which in turn are placed in a movable autosampler tray (maximum capacity 48 samples). The electrode, stirrer, dispensing tubing/tips and DPAS probe are housed on a movable, automated z-tower unit, which, controlled by software, positions itself in the appropriate titration vessel when titrating. The Sirius GLpKa instrument is directly connected to a dedicated PC supporting software for assay setup and subsequent data analysis. Assays are set up using the GlpKaControl software and results are analysed using the pKaLOGP and pKaUV software on the PC. The software also allows determination of multiple pKas using complex curve fitting analyses.
Method B: Potentiometric Method
Two types of potentiometric titrations may be performed in order to determine a compound's pKa/pKas; a purely aqueous titration (recommended for fairly water soluble compounds) and a cosolvent titration, where variable amounts of methanol are added to the sample in addition to ionic strength adjusted water (recommended for compounds which are not soluble in water). For the latter, a value for the compound's pKa in pure ionic strength adjusted water can be estimated by the Yasuda-Shedlovsky procedure. This involves measuring the apparent pKa of the compound at three known weight percentages of methanol:water (transposed into reciprocals of the dielectric constants of the medium, 1/εr) and then extrapolating to 0 wt % methanol (1/εr=[…]).
The GLpKa instrument unit also houses two aqueous wash containers (containing distilled water), a waste beaker (to dispense extraneous solutions into) and a container holding pH 7.00 buffer solution for the electrode to be immersed in during periods between titrations. Each time a set of titrations is carried out, these solutions are replaced. Position 1 in the autosampler contains a titration vessel containing pH 7.00 buffer solution (changed for each titration set). For each titration set to be run, position 2 houses a titration vessel into which ionic strength adjusted water is dispensed (typically 15.00 mL). This in turn is adjusted to pH 1.80 with aqueous HCl and then titrated to pH 12.20 by gradual addition of aqueous KOH. This is referred to as a blank titration and is employed by the pKaLogP software in order to calibrate the pH electrode and to standardise the HCl solution, using the so-called four-plus parameter procedure. Periodically, (typically every 3 months, or when the titration solutions run low) the titration solutions are replaced and the KOH solution standardised against potassium hydrogen phthalate using a standardisation procedure within the GLpKaControl software. Between 1-2 mg of each sample must be accurately weighed out. Samples are placed in provided glass titration vessels. The weight of compound must be entered into the GLpKaControl software. […]
In the case of Cc1c(Cl)ccc(OC2CCN(C[C@H](O)CNC(=O)c3cc(C#N)c(=O)[nH]c3C(F)(F)F)CC2)c1Cl [Example 11, 5-Cyano-N-{(2R)-3-[4-(2,4-dichloro-3-methylphenoxy)piperidin-1-yl]-2-hydroxypropyl}-6-oxo-2-(trifluoromethyl)-1,6-dihydropyridine-3-carboxamide], the pKa is reported as 3. With Cc1c(OC2CCN(C[C@H](O)CNC(=O)c3sc(=O)[nH]c3C(F)(F)F)CC2)ccc(C#N)c1Cl [Example 40, N-{(2R)-3-[4-(3-Chloro-4-cyano-2-methylphenoxy)piperidin-1-yl]-2-hydroxypropyl}-2-oxo-4-(trifluoromethyl)-2,3-dihydro-1,3-thiazole-5-carboxamide] the pKa was 4.7. Molecule O=C(NC[C@@H](O)CN1CCC(Oc2ccc(Cl)c(Cl)c2)CC1)c1sc(=O)[nH]c1CC(F)(F)F [Example 33, N-{(2R)-3-[4-(3,4-Dichlorophenoxy)piperidin-1-yl]-2-hydroxypropyl}-2-oxo-4-(2,2,2-trifluoroethyl)-2,3-dihydro-1,3-thiazole-5-carboxamide] has a pKa of 6.6. CSc1[nH]nnc1C(=O)NC[C@@H](O)CN1CCC(Oc2ccc(Cl)c(Cl)c2)CC1 [Example 36, N-{(2R)-3-[4-(3,4-Dichlorophenoxy)piperidin-1-yl]-2-hydroxypropyl}-5-(methylthio)-1H-1,2,3-triazole-4-carboxamide] showed a pKa of 5.5. O=C(NC[C@@H](O)CN1CCC(Oc2ccc(Cl)c(Cl)c2)CC1)c1nn[nH]c1SCC(F)(F)F [Example 19, N-{(2R)-3-[4-(3,4-Dichlorophenoxy)piperidin-1-yl]-2-hydroxypropyl}-5-[(2,2,2-trifluoroethyl)thio]-1H-1,2,3-triazole-4-carboxamide] showed a pKa of 5.2. O=C(NC[C@@H](O)CN1CCC(Oc2ccc(Cl)c(Cl)c2)CC1)c1nn[nH]c1-c1ccc(F)cc1 [Example 26, N-{(2R)-3-[4-(3,4-Dichlorophenoxy)piperidin-1-yl]-2-hydroxypropyl}-5-(4-fluorophenyl)-1H-1,2,3-triazole-4-carboxamide] showed a pKa of 6.1. N#Cc1cc(C(=O)NC[C@@H](O)CN2CCC(Oc3ccc(Cl)c(Cl)c3)CC2)c(-c2ccccc2)[nH]c1=O [Example 12, 5-Cyano-N-{(2R)-3-[4-(3,4-dichlorophenoxy)piperidin-1-yl]-2-hydroxypropyl}-6-oxo-2-phenyl-1,6-dihydropyridine-3-carboxamide] showed a pKa of 3. Work on O=C(NC[C@@H](O)CN1CCC(Oc2ccc(Cl)c(Cl)c2)CC1)c1nn[nH]c1C(F)(F)F [Example 38, N-{(2R)-3-[4-(3,4-Dichlorophenoxy)piperidin-1-yl]-2-hydroxypropyl}-5-(trifluoromethyl)-1H-1,2,3-triazole-4-carboxamide] yielded a pKa of 4. O=C(NC[C@@H](O)CN1CCC(Oc2ccc(Cl)c(Cl)c2)CC1)c1sc(=O)[nH]c1C(F)(F)F [Example 4, N-{(2R)-3-[4-(3,4-Dichlorophenoxy)piperidin-1-yl]-2-hydroxypropyl}-2,3-dihydro-2-oxo-4-(trifluoromethyl)-5-thiazolecarboxamide] showed a pKa of 4.7. With O=C(NC[C@@H](O)CN1CCC(Oc2ccc(Cl)c(Cl)c2)CC1)c1ccc(=O)[nH]c1C(F)(F)F [Example 1, N-{(2R)-3-[4-(3,4-Dichlorophenoxy)piperidin-1-yl]-2-hydroxypropyl}-6-oxo-2-(trifluoromethyl)-1,6-dihydropyridine-3-carboxamide] the pKa was 5.9. CS(=O)(=O)Nc1nc(C(F)(F)F)c(C(=O)NC[C@@H](O)CN2CCC(Oc3ccc(Cl)c(Cl)c3)CC2)s1 [Example 21, N-{(2R)-3-[4-(3,4-Dichlorophenoxy)piperidin-1-yl]-2-hydroxypropyl}-2-[(methylsulfonyl)amino]-4-(trifluoromethyl)-1,3-thiazole-5-carboxamide] gave a pKa of 7.5.

Same assay, conditions: method not stated; read-out: measured pKa
In the case of Cc1c(OC2CCN(C[C@H](O)CNC(=O)COc3cccc(C(=O)O)c3)CC2)ccc(Cl)c1Cl [Example 46, 3-[2-({(2R)-3-[4-(3,4-Dichloro-2-methylphenoxy)piperidin-1-yl]-2-hydroxypropyl}amino)-2-oxoethoxy]benzoic acid], the pKa is reported as 2.6.
